Data taken from US20030013660A1, “Dioxolane analogs for improved inter-cellular delivery” (Shire BioChem Inc., priority 2000, published 2003).
Several values for one entry are separate records, joined by “and”; a condition that tells them apart may be missing. Equal entries are not always repeated. Values belong to the molecule of their own block, whether it stands above or below them.

Experiments:
CEM/dCK- [1] = test: 3H-TdR (3H-thymidine) incorporation assay at 72 hr; assay type: cell-based
Description: (§1) Table of IC50 Values (μM) for Controls
(§2) Exposition of 24 hr to drug, wash, incubated for another 48 hr (total of 72 hr assay)
(§3) (3H-Thymidine Incorporation Assay)

CCRF-CEM [2] = test: 3H-TdR (3H-thymidine) incorporation assay at 72 hr; assay type: cell-based
Description: as §1, §2, §3

H-460 [3] = test: 3H-TdR (3H-thymidine) incorporation assay at 72 hr; assay type: cell-based, Human
H-460 [4] = test: MTT assay at 72 hr (24 hr drug exposure, wash, 48 hr); assay type: cell-based
Description: (§4) Exposition of 24hr to drug, washed, and incubated for another 48hr (total of 72hr assay)

SF-268 [5] = test: as above; assay type: cell-based; settings: Homo sapiens, SF-268, read-out: IC50 SF-268 24 h, Average, MTT at 72 hr, Average of the experiments
Description: as §4

MCF-7 [6] = test: as above; assay type: cell-based; settings: Homo sapiens, MCF7, read-out: IC50 MCF-7 24 h, Average, MTT at 72 hr, Average of the experiments
Description: as §4

CEM/dCK- [7] = test: MTT or WST-1 assay at 72 hr (24 hr drug exposure, wash, 48 hr); assay type: cell-based
Description: as §4

CCRF-CEM [8] = test: as above; assay type: cell-based; settings: Homo sapiens, CCRF-CEM, read-out: IC50 CCRF-CEM 24 h, Average, MMT or WST-1 at 72 hr, Average of the experiments
Description: as §4

SF-268 [9] = test: 3H-TdR (3H-thymidine) incorporation assay at 72 hr; assay type: cell-based, Human
CEM cells = test: CellTiter 96 cell proliferation assay (chemosensitivity), 48 h; assay type: cell-based
Description: (§5) The chemosensitivity of suspension cells lines (e.g., CEM or CEM-derivatives) is assessed using the CellTiter 96 ? proliferation assay. […] Adherent cell lines (e.g., DU145 or DU145^R) are seeded (^˜10^5 cells) in triplicate dishes, 24 h before drug exposure. Growth inhibition is determined by trypsinization and counting cells electronically.

CEM/ARAC8C cells [10] = test: as above; assay type: cell-based
Description: as §5

CEM/dCK cells = test: as above; assay type: cell-based; settings: read-out: EC50 (50% of the dose response curve), 48 h exposure
Description: as §5

MCF-7 [11] = test: 3H-TdR (3H-thymidine) incorporation assay at 72 hr; assay type: cell-based, Human
hENT1 = target: T1, hENT1 (Homo sapiens, UniProt Q99808); test: Cellular uptake assay of [3H]nucleoside in DU145 cells, with or without NBMPR or excess non-radioactive troxacitabine; assay type: in vitro ADME; set-up: The presence of functional es-mediated transport (hENT1) in DU145 cells; endogenous in cells; host or cells: DU145 cells; settings: DU-145, 10 μM, 6-min time course, read-out: inhibition of total [3H]uridine uptake in the presence of NBMPR
T1 sequence (Q99808 1-456): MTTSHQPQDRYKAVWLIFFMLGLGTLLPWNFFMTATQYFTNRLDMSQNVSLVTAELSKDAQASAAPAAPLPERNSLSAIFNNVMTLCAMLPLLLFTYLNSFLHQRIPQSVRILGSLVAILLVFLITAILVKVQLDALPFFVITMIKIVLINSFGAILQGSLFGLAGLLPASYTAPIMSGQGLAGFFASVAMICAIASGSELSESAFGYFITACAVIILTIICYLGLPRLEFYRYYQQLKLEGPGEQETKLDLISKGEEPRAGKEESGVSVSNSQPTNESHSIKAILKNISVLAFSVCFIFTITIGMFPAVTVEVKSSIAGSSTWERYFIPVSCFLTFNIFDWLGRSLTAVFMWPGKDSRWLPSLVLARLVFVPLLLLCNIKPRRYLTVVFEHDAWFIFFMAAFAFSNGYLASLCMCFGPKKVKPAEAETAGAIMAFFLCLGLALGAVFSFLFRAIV
Description: Cancer Res., 56: 4187-4191.
This experiment is designed to show whether [^3H]L-troxacitabine (10 μM) is taken up by DU145 cells and if the rate of uptake is affected by the addition of high concentrations (1 mM) of non-radioactive troxacitabine.

CEM/ARAC8C cells [12] = test: Cellular uptake assay of [3H]nucleoside in nucleoside-transport deficient CEM/ARAC8C cells; assay type: in vitro ADME
Description: FIG. 1 Comparative uptake of 30 μM [^3H]-troxacitabine in CEM (Panel A) and CEM/ARAC8C (Panel B) cells. [^3H]-Uridine uptake in either the presence or absence of the hENT1 inhibitor, NBMPR or 5 mM non-radioactive uridine was included for comparison as a control substrate.

IC50 (CEM/dCK- [1]; 24 h, read-out: IC50 CEM/dCK- 24 h, Average, Average ± spread of the repeat determinations, 24 h exposure): 66000 ± 24000 nM
IC50 (CEM/dCK- [1]; read-out: IC50 CEM/dCK- 24 h, 24 h drug exposure, wash, another 48 hr, deoxycytidine kinase-deficient CCRF-CEM): 51000 nM and 41000 nM and 30000 nM
IC50 (CCRF-CEM [2]; Homo sapiens, CCRF-CEM, 24 h, read-out: IC50 CCRF-CEM 24 h, Average, Average ± spread of the repeat determinations, 24 h exposure): 8.4 nM
IC50 (CCRF-CEM [2]; read-out: IC50 CCRF-CEM 24 h, 24 h drug exposure, wash, another 48 hr, 3H-TdR incorporation at 72 hr): 10 nM and 9.2 nM
IC50 (H-460 [3]; Homo sapiens, NCI-H460, 24 h, read-out: IC50 H-460 24 h, Average, Average ± spread of the repeat determinations, 24 h exposure): 11 nM
IC50 (H-460 [3]; read-out: IC50 H-460 24 h, 24 h drug exposure, wash, another 48 hr, 3H-TdR incorporation at 72 hr): 9.1 nM and 10 nM and 8.3 nM
IC50 (MCF-7 [6]): 78 nM
IC50 (CCRF-CEM [8]): 20 ± 23 nM
IC50 (SF-268 [9]; Homo sapiens, SF-268, 24 h, read-out: IC50 SF-268 24 h, Average, Average ± spread of the repeat determinations, 24 h exposure): 8.6 nM
IC50 (SF-268 [9]; read-out: IC50 SF-268 24 h, 24 h drug exposure, wash, another 48 hr, 3H-TdR incorporation at 72 hr): 4.5 nM and 10 nM and 9.4 nM
IC50 (MCF-7 [11]; Homo sapiens, MCF7, 24 h, read-out: IC50 MCF-7 24 h, Average, Average ± spread of the repeat determinations, 24 h exposure): 6.8 nM
IC50 (MCF-7 [11]; read-out: IC50 MCF-7 24 h, 24 h drug exposure, wash, another 48 hr, 3H-TdR incorporation at 72 hr): 8.7 nM and 10 nM
Structure (SMILES): Nc1ccn([C@@H]2O[C@H](CO)[C@@H](O)C2(F)F)c(=O)n1 [Gemcitabine, gemcitabine, reference compound]
Factor* (Resistance Factor), Average (CEM/dCK- [1]; Average ± spread of the ratios dCK- on wild-type CCRF-CEM): 8618 ± 3614
IC50 (H-460 [4]; Homo sapiens, NCI-H460, read-out: IC50 H-460 24 h, Average, MTT at 72 hr, Average of the experiments): 72 ± 100 nM
IC50 (H-460 [4]; read-out: IC50 H-460 24 h, MTT at 72 hr, 24 h exposure, single experiment): 12 nM and 86 nM
IC50 (SF-268 [5]): 180 ± 250 nM
Resistance Factor*, Average (CEM/dCK- [7]; CEM/dCK- versus CCRF-CEM, Average of the experiments): 3987 ± 3871
IC50 (CEM/dCK- [7]; read-out: IC50 CEM/dCK- 24 h, Average, MMT or WST-1 at 72 hr, Average of the experiments): 57000 ± 39000 nM
EC50 (CEM cells; Homo sapiens, CCRF-CEM, read-out: EC50 (50% of the dose response curve), CEM cells, 48 h exposure): 20 nM
effect of the es transport inhibitor NBMPR on resistance of CEM cells (CEM cells; presence of NBMPR): increased resistance
level of resistance of nucleoside-transport deficient CEM/ARAC8C cells (CEM/ARAC8C cells [10]; CEM/ARAC8C compared to CEM): 431 fold
EC50 (CEM/ARAC8C cells [10]; read-out: EC50 (50% of the dose response curve), CEM/ARAC8C cells, 48 h exposure): 8630 nM
EC50 (CEM/dCK cells): > 50000 nM

inhibition at 10 µM (hENT1): ~75%
uptake of [3H]nucleoside over the 6-min time course (CEM/ARAC8C cells [12]): Lack of [^3H]uridine uptake
Structure (SMILES): O=c1ccn([C@@H]2O[C@H](CO)[C@@H](O)[C@H]2O)c(=O)[nH]1 [uridine]
